From the supplement of paper PMC10307832

How the values were obtained:
Test in all cases: relative viability (nuclei count vs DMSO), 5 days (fraction); higher = more cells survive
Alpelisib + Phenformin = compound: Cc1nc(NC(=O)N2CCC[C@H]2C(N)=O)sc1-c1ccnc(C(C)(C)C(F)(F)F)c1 [Alpelisib] + N=C(N)NC(=N)NCCc1ccccc1 [Phenformin] (partner 250 µM)
Outline: (§1)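 One day after seeding in 1536-well plates, lung cancer cell lines were dosed by pin tool. Dosing was either single-drug or a fixed anchor-drug dose plus five library-drug doses (not always all listed) in √10 steps. After 5 days, nuclei were stained in one fix-and-stain step and counted on 4× images, and relative viability is the nuclei count of treated wells over that of vehicle wells, given as the median of duplicate plates.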

Vemurafenib + Pictilisib = compound: CCCS(=O)(=O)Nc1ccc(F)c(C(=O)c2c[nH]c3ncc(-c4ccc(Cl)cc4)cc23)c1F [Vemurafenib] + CS(=O)(=O)N1CCN(Cc2cc3nc(-c4cccc5[nH]ncc45)nc(N4CCOCC4)c3s2)CC1 [Pictilisib] (partner 1 µM)
Outline: as §1

OSI-027 + Lapatinib = compound: COc1cccc2cc(-c3nc([C@H]4CC[C@H](C(=O)O)CC4)n4ncnc(N)c34)[nH]c12 [OSI-027] + CS(=O)(=O)CCNCc1ccc(-c2ccc3ncnc(Nc4ccc(OCc5cccc(F)c5)c(Cl)c4)c3c2)o1 [Lapatinib] (partner 2 µM)
Outline: as §1

OSI-027 + Palbociclib = compound: COc1cccc2cc(-c3nc([C@H]4CC[C@H](C(=O)O)CC4)n4ncnc(N)c34)[nH]c12 [OSI-027] + CC(=O)c1c(C)c2cnc(Nc3ccc(N4CCNCC4)cn3)nc2n(C2CCCC2)c1=O [Palbociclib] (partner 0.5 µM)
Outline: as §1

Cell Line UMC-11 has a relative viability (Alpelisib + Phenformin; first compound 0.04 µM) of 0.302, a relative viability (Alpelisib + Phenformin; first compound 0.1265 µM) of 0.325 and a relative viability (Alpelisib + Phenformin; first compound 0.4 µM) of 0.326. For the same cell line, the relative viability (Alpelisib + Phenformin; first compound 1.265 µM) was 0.31, the relative viability (Alpelisib + Phenformin; first compound 4 µM) was 0.262 and the relative viability (Vemurafenib + Pictilisib; first compound 0.03162 µM) was 0.867. It also gave a relative viability (Vemurafenib + Pictilisib; first compound 0.1 µM) of 0.801, a relative viability (Vemurafenib + Pictilisib; first compound 0.3162 µM) of 0.714 and a relative viability (Vemurafenib + Pictilisib; first compound 1 µM) of 0.348. For the same cell line, the relative viability (OSI-027 + Lapatinib; first compound 0.01 µM) was 0.934, the relative viability (OSI-027 + Lapatinib; first compound 0.03162 µM) was 0.939 and the relative viability (OSI-027 + Lapatinib; first compound 0.1 µM) was 0.805. The relative viability (OSI-027 + Lapatinib; first compound 0.3162 µM) was 0.693, the relative viability (OSI-027 + Lapatinib; first compound 1 µM) was 0.506 and the relative viability (OSI-027 + Palbociclib; first compound 0.01 µM) was 0.314. The relative viability (OSI-027 + Palbociclib; first compound 0.03162 µM) was 0.371, the relative viability (OSI-027 + Palbociclib; first compound 0.1 µM) was 0.307 and the relative viability (OSI-027 + Palbociclib; first compound 0.3162 µM) was 0.301. For the same cell line, the relative viability (OSI-027 + Palbociclib; first compound 1 µM) was 0.314.
